# Measurements: PubChem BioAssay (NCI)
#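 96-well plates; 48 h exposure; 5 concentrations. Endpoints by linear interpolation between flanking doses. Not reached: highest tested concentration assigned. The concentration for 50% growth inhibition is given as GI50. TGI: total growth inhibition.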
# Tests used:
# Test in all cases: NCI anticancer screen, dose series, 48 h
# OVCAR-3 ovarian = system: OVCAR-3 ovarian
# HCT-116 colon = system: HCT-116 colon
# NCI-H226 lung = system: NCI-H226 lung
# TK-10 renal = system: TK-10 renal
# HOP-62 NSCLC = system: HOP-62 NSCLC
# K-562 leukemia = system: K-562 leukemia
# LOX IMVI melanoma = system: LOX IMVI melanoma
# SK-MEL-28 melanoma = system: SK-MEL-28 melanoma
# IGROV1 ovarian = system: IGROV1 ovarian
# UO-31 renal = system: UO-31 renal
# MDA-MB-231 breast = system: MDA-MB-231 breast
# MDA-MB-435 = system: MDA-MB-435
# KM12 colon = system: KM12 colon
# MCF7 breast = system: MCF7 breast
# OVCAR-5 ovarian = system: OVCAR-5 ovarian
# SNB-75 CNS = system: SNB-75 CNS
# HCT-15 colon = system: HCT-15 colon
# SR leukemia = system: SR leukemia
# SK-MEL-2 melanoma = system: SK-MEL-2 melanoma
# SN12C renal = system: SN12C renal
# NCI/ADR-RES ovarian = system: NCI/ADR-RES ovarian
# HL-60(TB) leukemia = system: HL-60(TB) leukemia
# U251 CNS = system: U251 CNS
# SF-295 CNS = system: SF-295 CNS
# SK-MEL-5 melanoma = system: SK-MEL-5 melanoma
# EKVX NSCLC = system: EKVX NSCLC
# MOLT-4 leukemia = system: MOLT-4 leukemia
# NCI-H23 lung = system: NCI-H23 lung
# HT29 colon = system: HT29 colon
# 786-0 renal = system: 786-0 renal
# SNB-19 CNS = system: SNB-19 CNS
# CCRF-CEM leukemia = system: CCRF-CEM leukemia
# COLO 205 colon = system: COLO 205 colon
# A549 NSCLC = system: A549 NSCLC
# BT-549 breast = system: BT-549 breast
# UACC-257 melanoma = system: UACC-257 melanoma
# UACC-62 melanoma = system: UACC-62 melanoma
# NCI-H460 lung = system: NCI-H460 lung
# SF-539 CNS = system: SF-539 CNS
# PC-3 prostate = system: PC-3 prostate
# NCI-H522 lung = system: NCI-H522 lung
# ACHN renal = system: ACHN renal
# RXF 393 renal = system: RXF 393 renal
# HS 578T breast = system: HS 578T breast
# SW-620 colon = system: SW-620 colon
# RPMI-8226 leukemia = system: RPMI-8226 leukemia
# OVCAR-8 ovarian = system: OVCAR-8 ovarian
# DU-145 prostate = system: DU-145 prostate
# SF-268 CNS = system: SF-268 CNS
# CAKI-1 renal = system: CAKI-1 renal
# A498 renal = system: A498 renal
# MALME-3M melanoma = system: MALME-3M melanoma
# M14 melanoma = system: M14 melanoma
# HOP-92 NSCLC = system: HOP-92 NSCLC
# HCC-2998 colon = system: HCC-2998 colon
# OVCAR-4 ovarian = system: OVCAR-4 ovarian
compound,measurement,setting,value
CN(c1ccc(C(=O)O)cc1)c1cc(O/N=[N+](\[O-])N(C)C)c([N+](=O)[O-])cc1[N+](=O)[O-],GI50,OVCAR-3 ovarian,2.62 µM
same,TGI,OVCAR-3 ovarian,6.92 µM
same,GI50,HCT-116 colon,2.72 µM
same,TGI,HCT-116 colon,10.4 µM
same,GI50,NCI-H226 lung,11.3 µM
same,TGI,NCI-H226 lung,29 µM
same,GI50,TK-10 renal,13.9 µM
same,TGI,TK-10 renal,26.9 µM
same,GI50,HOP-62 NSCLC,14.5 µM
same,TGI,HOP-62 NSCLC,31.3 µM
same,GI50,K-562 leukemia,6.99 µM
same,TGI,K-562 leukemia,> 100 µM
same,GI50,LOX IMVI melanoma,1.86 µM
same,TGI,LOX IMVI melanoma,4.33 µM
same,GI50,SK-MEL-28 melanoma,21 µM
same,TGI,SK-MEL-28 melanoma,57.1 µM
same,GI50,IGROV1 ovarian,5.48 µM
same,TGI,IGROV1 ovarian,24.5 µM
same,GI50,UO-31 renal,32.1 µM
same,TGI,UO-31 renal,> 100 µM
same,GI50,MDA-MB-231 breast,3.71 µM
same,TGI,MDA-MB-231 breast,12.2 µM
same,GI50,MDA-MB-435,4.84 µM
same,TGI,MDA-MB-435,19.9 µM
same,GI50,KM12 colon,10.9 µM
same,TGI,KM12 colon,23.9 µM
same,GI50,MCF7 breast,6.8 µM
same,TGI,MCF7 breast,54.8 µM
same,GI50,OVCAR-5 ovarian,10.8 µM
same,TGI,OVCAR-5 ovarian,72.5 µM
same,GI50,SNB-75 CNS,25.6 µM
same,TGI,SNB-75 CNS,55.6 µM
same,GI50,HCT-15 colon,2.03 µM
same,TGI,HCT-15 colon,5.3 µM
same,GI50,SR leukemia,19.8 µM
same,TGI,SR leukemia,> 100 µM
same,GI50,SK-MEL-2 melanoma,14.9 µM
same,TGI,SK-MEL-2 melanoma,39.6 µM
same,GI50,SN12C renal,12.2 µM
same,TGI,SN12C renal,25.3 µM
same,GI50,NCI/ADR-RES ovarian,3.35 µM
same,TGI,NCI/ADR-RES ovarian,17.2 µM
same,GI50,HL-60(TB) leukemia,2.84 µM
same,TGI,HL-60(TB) leukemia,27.4 µM
same,GI50,U251 CNS,3.69 µM
same,TGI,U251 CNS,14.1 µM
same,GI50,SF-295 CNS,12.6 µM
same,TGI,SF-295 CNS,27 µM
same,GI50,SK-MEL-5 melanoma,19.1 µM
same,TGI,SK-MEL-5 melanoma,38.7 µM
same,GI50,EKVX NSCLC,18.2 µM
same,TGI,EKVX NSCLC,36.2 µM
same,GI50,MOLT-4 leukemia,12.1 µM
same,TGI,MOLT-4 leukemia,> 100 µM
same,GI50,NCI-H23 lung,4.83 µM
same,TGI,NCI-H23 lung,29.2 µM
same,GI50,HT29 colon,23 µM
same,TGI,HT29 colon,> 100 µM
same,GI50,786-0 renal,3.25 µM
same,TGI,786-0 renal,14.6 µM
same,GI50,SNB-19 CNS,14.6 µM
same,TGI,SNB-19 CNS,40.7 µM
same,GI50,CCRF-CEM leukemia,> 100 µM
same,TGI,CCRF-CEM leukemia,> 100 µM
same,GI50,COLO 205 colon,8.78 µM
same,TGI,COLO 205 colon,> 100 µM
same,GI50,A549 NSCLC,23.5 µM
same,TGI,A549 NSCLC,63.7 µM
same,GI50,BT-549 breast,17.4 µM
same,TGI,BT-549 breast,32.6 µM
same,GI50,UACC-257 melanoma,21 µM
same,TGI,UACC-257 melanoma,40.6 µM
same,GI50,UACC-62 melanoma,7.29 µM
same,TGI,UACC-62 melanoma,19.8 µM
same,GI50,NCI-H460 lung,18.9 µM
same,TGI,NCI-H460 lung,> 100 µM
same,GI50,SF-539 CNS,16.6 µM
same,TGI,SF-539 CNS,35.8 µM
same,GI50,PC-3 prostate,17.5 µM
same,TGI,PC-3 prostate,38.1 µM
same,GI50,NCI-H522 lung,15.1 µM
same,TGI,NCI-H522 lung,> 100 µM
same,GI50,ACHN renal,3.8 µM
same,TGI,ACHN renal,14.1 µM
same,GI50,RXF 393 renal,17.1 µM
same,TGI,RXF 393 renal,33.8 µM
same,GI50,HS 578T breast,21.5 µM
same,TGI,HS 578T breast,61.3 µM
same,GI50,SW-620 colon,3.64 µM
same,TGI,SW-620 colon,> 100 µM
same,GI50,RPMI-8226 leukemia,2.79 µM
same,TGI,RPMI-8226 leukemia,18 µM
same,GI50,OVCAR-8 ovarian,22.3 µM
same,TGI,OVCAR-8 ovarian,54.5 µM
same,GI50,DU-145 prostate,17.1 µM
same,TGI,DU-145 prostate,33.5 µM
same,GI50,SF-268 CNS,13.1 µM
same,TGI,SF-268 CNS,36.3 µM
same,GI50,CAKI-1 renal,1.79 µM
same,TGI,CAKI-1 renal,4 µM
CN(C)CCCNc1nc2ccccc2c2c(=O)c3cc(F)ccc3sc12,GI50,OVCAR-3 ovarian,1.67 µM
same,TGI,OVCAR-3 ovarian,3.17 µM
same,GI50,HCT-116 colon,1.51 µM
same,TGI,HCT-116 colon,3.19 µM
same,GI50,NCI-H226 lung,1.71 µM
same,TGI,NCI-H226 lung,3.34 µM
same,GI50,TK-10 renal,1.9 µM
same,TGI,TK-10 renal,3.67 µM
same,GI50,HOP-62 NSCLC,1.98 µM
same,TGI,HOP-62 NSCLC,4.2 µM
same,GI50,K-562 leukemia,2.33 µM
same,TGI,K-562 leukemia,8.35 µM
same,GI50,LOX IMVI melanoma,1.63 µM
same,TGI,LOX IMVI melanoma,3.05 µM
same,GI50,SK-MEL-28 melanoma,1.76 µM
same,TGI,SK-MEL-28 melanoma,3.19 µM
same,GI50,A498 renal,1.81 µM
same,TGI,A498 renal,3.68 µM
same,GI50,IGROV1 ovarian,1.47 µM
same,TGI,IGROV1 ovarian,2.94 µM
same,GI50,UO-31 renal,1.48 µM
same,TGI,UO-31 renal,2.83 µM
same,GI50,MDA-MB-231 breast,1.37 µM
same,TGI,MDA-MB-231 breast,2.75 µM
same,GI50,MDA-MB-435,1.74 µM
same,TGI,MDA-MB-435,3.36 µM
same,GI50,KM12 colon,1.74 µM
same,TGI,KM12 colon,3.3 µM
same,GI50,MCF7 breast,1.13 µM
same,TGI,MCF7 breast,2.66 µM
same,GI50,OVCAR-5 ovarian,1.57 µM
same,TGI,OVCAR-5 ovarian,2.95 µM
same,GI50,MALME-3M melanoma,1.62 µM
same,TGI,MALME-3M melanoma,3.05 µM
same,GI50,SNB-75 CNS,1.33 µM
same,TGI,SNB-75 CNS,2.75 µM
same,GI50,HCT-15 colon,1.65 µM
same,TGI,HCT-15 colon,3.2 µM
same,GI50,SR leukemia,4.01 µM
same,TGI,SR leukemia,> 100 µM
same,GI50,SK-MEL-2 melanoma,2 µM
same,TGI,SK-MEL-2 melanoma,4.07 µM
same,GI50,SN12C renal,1.61 µM
same,TGI,SN12C renal,3.15 µM
same,GI50,NCI/ADR-RES ovarian,1.62 µM
same,TGI,NCI/ADR-RES ovarian,3.18 µM
same,GI50,HL-60(TB) leukemia,2.02 µM
same,TGI,HL-60(TB) leukemia,4.14 µM
same,GI50,U251 CNS,1.9 µM
same,TGI,U251 CNS,4.41 µM
same,GI50,SF-295 CNS,1.78 µM
same,TGI,SF-295 CNS,3.27 µM
same,GI50,SK-MEL-5 melanoma,1.7 µM
same,TGI,SK-MEL-5 melanoma,3.12 µM
same,GI50,EKVX NSCLC,1.59 µM
same,TGI,EKVX NSCLC,3.24 µM
same,GI50,MOLT-4 leukemia,2.13 µM
same,TGI,MOLT-4 leukemia,4.48 µM
same,GI50,NCI-H23 lung,1.67 µM
same,TGI,NCI-H23 lung,3.17 µM
same,GI50,HT29 colon,1.7 µM
same,TGI,HT29 colon,3.71 µM
same,GI50,786-0 renal,1.47 µM
same,TGI,786-0 renal,3.02 µM
same,GI50,SNB-19 CNS,1.65 µM
same,TGI,SNB-19 CNS,3.08 µM
same,GI50,CCRF-CEM leukemia,2.23 µM
same,TGI,CCRF-CEM leukemia,5.31 µM
same,GI50,COLO 205 colon,2.12 µM
same,TGI,COLO 205 colon,5.03 µM
same,GI50,M14 melanoma,1.98 µM
same,TGI,M14 melanoma,3.75 µM
same,GI50,A549 NSCLC,2.04 µM
same,TGI,A549 NSCLC,4.81 µM
same,GI50,BT-549 breast,10.1 µM
same,TGI,BT-549 breast,22.9 µM
same,GI50,UACC-257 melanoma,2.08 µM
same,TGI,UACC-257 melanoma,4.21 µM
same,GI50,UACC-62 melanoma,1.75 µM
same,TGI,UACC-62 melanoma,3.24 µM
same,GI50,HOP-92 NSCLC,1.17 µM
same,TGI,HOP-92 NSCLC,3.96 µM
same,GI50,NCI-H460 lung,1.76 µM
same,TGI,NCI-H460 lung,3.44 µM
same,GI50,SF-539 CNS,1.61 µM
same,TGI,SF-539 CNS,3.01 µM
same,GI50,PC-3 prostate,1.8 µM
same,TGI,PC-3 prostate,3.53 µM
same,GI50,HCC-2998 colon,1.67 µM
same,TGI,HCC-2998 colon,3.24 µM
same,GI50,NCI-H522 lung,1.89 µM
same,TGI,NCI-H522 lung,3.98 µM
same,GI50,ACHN renal,1.56 µM
same,TGI,ACHN renal,2.92 µM
same,GI50,RXF 393 renal,1.46 µM
same,TGI,RXF 393 renal,2.91 µM
same,GI50,HS 578T breast,1.66 µM
same,TGI,HS 578T breast,3.56 µM
same,GI50,SW-620 colon,1.62 µM
same,TGI,SW-620 colon,3.18 µM
same,GI50,RPMI-8226 leukemia,2.32 µM
same,TGI,RPMI-8226 leukemia,5.37 µM
same,GI50,OVCAR-4 ovarian,2 µM
same,TGI,OVCAR-4 ovarian,4.35 µM
same,GI50,OVCAR-8 ovarian,2.09 µM
same,TGI,OVCAR-8 ovarian,4.91 µM
same,GI50,DU-145 prostate,1.68 µM
same,TGI,DU-145 prostate,3.16 µM
same,GI50,SF-268 CNS,1.53 µM
same,TGI,SF-268 CNS,3.16 µM
same,GI50,CAKI-1 renal,1.58 µM
same,TGI,CAKI-1 renal,2.94 µM
